Source: ChEMBL document CHEMBL4346657, “Anticancer activity, dual prooxidant/antioxidant effect and apoptosis induction profile of new bichalcophene-5-carboxamidines” (Eur J Med Chem, 2019)
The source made the active and inactive calls. No cut-off for these calls is given here.

What was measured:
SW-620 = test: Antiproliferative activity against human SW620 cells assessed as growth inhibition after 48 hrs by sulforhodamine B assay; format: functional; conditions: SW-620, 48 h
OVCAR-5 = test: Antiproliferative activity against human OVCAR5 cells assessed as growth inhibition after 48 hrs by sulforhodamine B assay; format: functional; conditions: OVCAR-5, 48 h
NCI-H522 = test: Antiproliferative activity against human NCI-H522 cells assessed as growth inhibition after 48 hrs by sulforhodamine B assay; format: functional; conditions: NCI-H522, 48 h
[1] = Pro-oxidant activity assessed as increase in bleomycin-Fe2+ induced calf thymus DNA damage at 2 mM after 1 hr by thiobarbituric acid based absorbance analysis
SF-268 = test: Antiproliferative activity against human SF268 cells assessed as growth inhibition after 48 hrs by sulforhodamine B assay; format: functional; conditions: SF-268, 48 h
ACHN = test: Antiproliferative activity against human ACHN cells assessed as growth inhibition after 48 hrs by sulforhodamine B assay; format: functional
MCF7 = test: Antiproliferative activity against human MCF7 cells assessed as growth inhibition after 48 hrs by sulforhodamine B assay; format: functional; conditions: MCF7, 48 h
NCI-H322M = test: Antiproliferative activity against human NCI-H322M cells assessed as growth inhibition after 48 hrs by sulforhodamine B assay; format: functional
SK-MEL-28 = test: Antiproliferative activity against human SK-MEL-28 cells assessed as growth inhibition after 48 hrs by sulforhodamine B assay; format: functional; conditions: SK-MEL-28, 48 h
Malme-3M = test: Antiproliferative activity against human MALME-3M cells assessed as growth inhibition after 48 hrs by sulforhodamine B assay; format: functional
786-0 = test: Antiproliferative activity against human 786-0 cells assessed as growth inhibition after 48 hrs by sulforhodamine B assay; format: functional; conditions: 786-0, 48 h
NCI-H460 = test: Antiproliferative activity against human NCI-H460 cells assessed as growth inhibition after 48 hrs by sulforhodamine B assay; format: functional; conditions: NCI-H460, 48 h
SN12C = test: Antiproliferative activity against human SN12C cells assessed as growth inhibition after 48 hrs by sulforhodamine B assay; format: functional
[2] = Antioxidant activity assessed as ABTS radical scavenging activity by spectrophotometric method relative to ascorbic acid; format: functional
[3] = Haemolytic activity in human erythrocytes assessed as induction of hemolysis at 10 mM after 30 mins relative to H202; format: cell-based, Erythrocyte; conditions: read-out: Activity
[4] = Antioxidant activity assessed as ABTS radical scavenging activity by spectrophotometric analysis relative to control; format: functional; parameters: concentration or dose not given beside the values; conditions: dose or concentration not given here
MDA-MB-435 = test: Antiproliferative activity against human MDA-MB-435 cells assessed as growth inhibition after 48 hrs by sulforhodamine B assay; format: functional; conditions: MDA-MB-435, 48 h
IGROV-1 = test: Antiproliferative activity against human IGROV1 cells assessed as growth inhibition after 48 hrs by sulforhodamine B assay; format: functional; conditions: IGROV-1, 48 h
[5] = Haemolytic activity in human erythrocytes assessed as induction of hemolysis at 5 mM after 30 mins relative to H202; format: cell-based, Erythrocyte; conditions: read-out: Activity
HL-60(TB) = test: Antiproliferative activity against human HL-60(TB) cells assessed as growth inhibition after 48 hrs by sulforhodamine B assay; format: functional; conditions: HL-60, 48 h
[6] = Antioxidant activity assessed as hydroxyl radical scavenging activity after 1 hr by salicylic acid-based Fenton reaction assay; format: functional
MDA-MB-231 = test: Antiproliferative activity against human MDA-MB-231/ATCC cells assessed as growth inhibition after 48 hrs by sulforhodamine B assay; format: functional; conditions: MDA-MB-231, 48 h
[7] = tested on: Panel NCI-60 (60 carcinoma cell lines); test: Antiproliferative activity against human NCI60 cells assessed as growth inhibition at 10 uM after 48 hrs by sulforhodamine B assay; format: functional; conditions: read-out: GI
DU-145 = test: Antiproliferative activity against human DU145 cells assessed as growth inhibition after 48 hrs by sulforhodamine B assay; format: functional; conditions: DU-145, 48 h
NCI-H226 = test: Antiproliferative activity against human NCI-H226 cells assessed as growth inhibition after 48 hrs by sulforhodamine B assay; format: functional; conditions: NCI-H226, 48 h
SK-MEL-2 = test: Antiproliferative activity against human SK-MEL-2 cells assessed as growth inhibition after 48 hrs by sulforhodamine B assay; format: functional; conditions: SK-MEL-2, 48 h
SK-OV-3 = test: Antiproliferative activity against human SKOV3 cells assessed as growth inhibition after 48 hrs by sulforhodamine B assay; format: functional; conditions: SK-OV-3, 48 h
[8] = Selectivity index, ratio of IC50 for human WI38 cells to GI50 for human NCI60 cells
HCT-116 [9] = test: Induction of apoptosis in human HCT116 cells assessed as increase in caspase 9 mRNA expression at 100 nM after 6 hrs hrs by SYBR green dye-based qRT-PCR analysis relative to control; format: functional
CCRF-CEM = test: Antiproliferative activity against human CCRF-CEM cells assessed as growth inhibition after 48 hrs by sulforhodamine B assay; format: functional
SK-MEL-5 = test: Antiproliferative activity against human SK-MEL-5 cells assessed as growth inhibition after 48 hrs by sulforhodamine B assay; format: functional; conditions: SK-MEL-5, 48 h
EKVX = test: Antiproliferative activity against human EKVX cells assessed as growth inhibition after 48 hrs by sulforhodamine B assay; format: functional
HCT-116 [10] = test: Induction of apoptosis in human HCT116 cells assessed as increase in p53 mRNA expression at 100 nM after 6 hrs hrs by SYBR green dye-based qRT-PCR analysis relative to control; format: functional
RPMI-8226 = test: Antiproliferative activity against human RPMI8226 cells assessed as growth inhibition after 48 hrs by sulforhodamine B assay; format: functional; conditions: RPMI-8226, 48 h
[11] = tested on: Panel NCI-60 (60 carcinoma cell lines); test: Antiproliferative activity against human NCI60 cells assessed as growth inhibition after 48 hrs by sulforhodamine B assay; format: functional
HCT-116 [12] = test: Antiproliferative activity against human HCT116 cells assessed as growth inhibition after 48 hrs by sulforhodamine B assay; format: functional; conditions: HCT-116, 48 h
HCT-116 [13] = test: […] in CDK1 mRNA expression in human HCT116 cells at 100 nM after 6 hrs hrs by SYBR green dye-based qRT-PCR analysis relative to control; format: functional
SNB-19 = test: Antiproliferative activity against human SNB19 cells assessed as growth inhibition after 48 hrs by sulforhodamine B assay; format: functional; conditions: SNB-19, 48 h
UACC-62 = test: Antiproliferative activity against human UACC62 cells assessed as growth inhibition after 48 hrs by sulforhodamine B assay; format: functional; conditions: UACC-62, 48 h
COLO 205 = test: Antiproliferative activity against human COLO205 cells assessed as growth inhibition after 48 hrs by sulforhodamine B assay; format: functional; conditions: COLO 205, 48 h
M14 = test: Antiproliferative activity against human M14 cells assessed as growth inhibition after 48 hrs by sulforhodamine B assay; format: functional; conditions: M14, 48 h
SF-295 = test: Antiproliferative activity against human SF295 cells assessed as growth inhibition after 48 hrs by sulforhodamine B assay; format: functional; conditions: SF-295, 48 h

Compound: COc1cc(OC)cc(-c2ccc(-c3ccc(C(=N)N)o3)o2)c1
- GI50 (SW-620): 1880 nM
- GI50 (OVCAR-5): 2340 nM
- GI50 (NCI-H522): 2300 nM
- Activity [1]: Active
- GI50 (SF-268): 3400 nM
- GI50 (ACHN): 2050 nM
- GI50 (MCF7): 1800 nM
- GI50 (NCI-H322M): 2860 nM
- GI50 (SK-MEL-28): 1820 nM
- GI50 (Malme-3M): 2040 nM
- GI50 (786-0): 4150 nM
- GI50 (NCI-H460): 2320 nM
- GI50 (SN12C): 2380 nM
- fold change (FC) [2]: 0.4
- hemolysis at 0.5 h, 10000 µM [3]: 19.3%
- inhibition [4]: 36%
- GI50 (MDA-MB-435): 1520 nM
- GI50 (IGROV-1): 2970 nM
- hemolysis at 0.5 h, 5000 µM [5]: 7.5%
- GI50 (HL-60(TB)): 1900 nM
- Activity [6]: Active
- GI50 (MDA-MB-231): 2350 nM
- inhibition of growth at 10 µM [7]: 55.9%
- GI50 (DU-145): 4280 nM
- GI50 (NCI-H226): 2260 nM
- GI50 (SK-MEL-2): 2440 nM
- GI50 (SK-OV-3): 14900 nM
- Selectivity Index [8]: 27
- fold change (FC) (HCT-116 [9]): 1.03
- GI50 (CCRF-CEM): 2720 nM
- GI50 (SK-MEL-5): 1950 nM
- GI50 (EKVX): 5090 nM
- fold change (FC) (HCT-116 [10]): 0.9
- GI50 (RPMI-8226): 2250 nM
- GI50 [11]: 3020 nM
- LC50 [11]: 22900 nM
- TGI [11]: 8120 nM
- GI50 (HCT-116 [12]): 2510 nM
- fold change (FC) (HCT-116 [13]): 1.24
- GI50 (SNB-19): 3020 nM
- GI50 (UACC-62): 1980 nM
- GI50 (COLO 205): 1840 nM
- GI50 (M14): 2070 nM
- GI50 (SF-295): 2080 nM

Compound: N=C(N)c1ccc(-c2ccc(-c3ccc(Cl)cc3)s2)s1
- GI50 (SW-620): 1740 nM
- GI50 (OVCAR-5): 1580 nM
- GI50 (NCI-H522): 1830 nM
- Activity [1]: Active
- GI50 (SF-268): 1770 nM
- GI50 (ACHN): 1750 nM
- GI50 (MCF7): 1290 nM
- GI50 (NCI-H322M): 1630 nM
- GI50 (SK-MEL-28): 1680 nM
- GI50 (Malme-3M): 1810 nM
- GI50 (786-0): 1790 nM
- GI50 (NCI-H460): 1510 nM
- GI50 (SN12C): 1910 nM
- fold change (FC) [2]: 0.9
- hemolysis at 0.5 h, 10000 µM [3]: 81.7%
- inhibition [4]: 81.2%
- GI50 (MDA-MB-435): 1640 nM
- GI50 (IGROV-1): 1830 nM
- hemolysis at 0.5 h, 5000 µM [5]: 49%
- GI50 (HL-60(TB)): 1490 nM
- Activity [6]: Active
- GI50 (MDA-MB-231): 1800 nM
- inhibition of growth at 10 µM [7]: -57.2%
- GI50 (DU-145): 1620 nM
- GI50 (NCI-H226): 2190 nM
- GI50 (SK-MEL-2): 2380 nM
- GI50 (SK-OV-3): 1700 nM
- Selectivity Index [8]: 40
- fold change (FC) (HCT-116 [9]): 2.91
- GI50 (CCRF-CEM): 1840 nM
- GI50 (SK-MEL-5): 3160 nM
- GI50 (EKVX): 1640 nM
- fold change (FC) (HCT-116 [10]): 0.89
- GI50 (RPMI-8226): 2040 nM
- GI50 [11]: 1730 nM
- LC50 [11]: 29500 nM
- TGI [11]: 4070 nM
- GI50 (HCT-116 [12]): 1740 nM
- fold change (FC) (HCT-116 [13]): 1.08
- GI50 (SNB-19): 1920 nM
- GI50 (UACC-62): 1800 nM
- GI50 (COLO 205): 1440 nM
- GI50 (M14): 1710 nM
- GI50 (SF-295): 1630 nM

Compound: N=C(N)c1ccc(-c2ccc(-c3ccc(F)cc3)o2)o1
- GI50 (SW-620): 940 nM
- GI50 (OVCAR-5): 1660 nM
- GI50 (NCI-H522): 1360 nM
- Activity [1]: Active
- GI50 (SF-268): 1920 nM
- GI50 (ACHN): 1600 nM
- GI50 (MCF7): 680 nM
- GI50 (NCI-H322M): 1600 nM
- GI50 (SK-MEL-28): 1630 nM
- GI50 (Malme-3M): 1630 nM
- GI50 (786-0): 1660 nM
- GI50 (NCI-H460): 1760 nM
- GI50 (SN12C): 1800 nM
- fold change (FC) [2]: 0.1
- hemolysis at 0.5 h, 10000 µM [3]: 90%
- inhibition [4]: 13.2%
- GI50 (MDA-MB-435): 350 nM
- GI50 (IGROV-1): 1580 nM
- hemolysis at 0.5 h, 5000 µM [5]: 66.3%
- GI50 (HL-60(TB)): 1800 nM
- Activity [6]: Active
- GI50 (MDA-MB-231): 1570 nM
- inhibition of growth at 10 µM [7]: 83.8%
- GI50 (DU-145): 1800 nM
- GI50 (NCI-H226): 2820 nM
- GI50 (SK-MEL-2): 1760 nM
- GI50 (SK-OV-3): 2320 nM
- Selectivity Index [8]: 7.2
- fold change (FC) (HCT-116 [9]): 4.67
- GI50 (CCRF-CEM): 1840 nM
- GI50 (SK-MEL-5): 1560 nM
- GI50 (EKVX): 1350 nM
- fold change (FC) (HCT-116 [10]): 0.96
- GI50 (RPMI-8226): 2480 nM
- GI50 [11]: 1470 nM
- LC50 [11]: 9550 nM
- TGI [11]: 3460 nM
- GI50 (HCT-116 [12]): 1180 nM
- fold change (FC) (HCT-116 [13]): 1.07
- GI50 (SNB-19): 1730 nM
- GI50 (UACC-62): 1740 nM
- GI50 (COLO 205): 1600 nM
- GI50 (M14): 1230 nM
- GI50 (SF-295): 1510 nM
